Where a name gives a salt, the structure may show the parent alone.
What was measured:
Hela cells = test: Cytotoxicity test, MTT assay; type: cell-based; conditions: Homo sapiens, 1 µM, 72h, read-out: Inhibition (%) Hel a
Experimental: (§1) […]. Various cells in the logarithmic growth phase were seeded in 96-well plates at 6,000 cells/well and cultured for 24h. […]. The dosage of DMSO in the solvent control group was based on the maximum dose of 0.1% used in the test group, with four duplicate wells for each concentration. Cells were treated with the drug for 72h and then added with 20µL 5 mg/mL MTT, cultured at 37°C for 4h, after added 100 µ L triple solution (10% SDS, 5% isobutanol, 12 mM hydrochloric acid), 96-well cell culture plate was placed in an incubator containing 5% CO2 at 37 ± 1°C overnight. OD value at 570nm was measured on a microplate reader.
(§2) The inhibition rate of tumor cell growth was calculated according to the following formula: Inhibition rate(%) = [(OD570controlwell−OD570dosewell)/OD570controlwell] × 100. [formula]

A549 cells = test: Cytotoxicity test, MTT assay; type: cell-based; conditions: Homo sapiens, A549; 1 µM, 72h
Experimental: as §1, §2

HCT-116 cells = test: Cytotoxicity test, MTT assay; type: cell-based; conditions: Homo sapiens, HCT-116; 1 µM, 72h
Experimental: as §1, §2

MCF7 cells = test: Cytotoxicity test, MTT assay; type: cell-based; conditions: Homo sapiens, MCF7; 1 µM, 72h; read-out: Inhibition (%) MC F7
Experimental: as §1, §2

293 cells = test: Cytotoxicity test, MTT assay; type: cell-based; conditions: Homo sapiens, HEK293; 1 µM, 72h
Experimental: as §1, §2

Huh7 cells = test: Cytotoxicity test, MTT assay; type: cell-based; conditions: Homo sapiens, Huh-7; 1 µM, 72h; read-out: Inhibition (%) Hu h7
Experimental: as §1, §2

MKN45 cells = test: Cytotoxicity test, MTT assay; type: cell-based; conditions: Homo sapiens, MKN-45; 1 µM, 72h
Experimental: as §1, §2

HepG2 cells = test: Cytotoxicity test, MTT assay; type: cell-based; conditions: Homo sapiens, HepG2; 1 µM, 72h; read-out: Inhibition (%) Hep G2
Experimental: as §1, §2

B and T cells = test: Immune cells in blood of HBV-infected mice, flow cytometry; conditions: 530 mg/kg/day, once a day, oral gavage, day 9, Figure 19
Experimental: Six-week-old male C57 mice were rapidly injected with 10µg/mouse of viral genomic DNA (genotype A) by tail vein injection in a short period. Viral infection was established using a venous hypertension model and randomly divided into groups. […] At the same time, a blank control was set up, and oral administration in uninfected mice was equivalent to the model group.
On day 9, mice were sacrificed to collect blood stained with flow antibody after fission red. All cells were treated with anti-FcγRIII/ II (purchased from BD Biosciences) in PBS for 30 min. CD3e-FITC (purchased from BD Biosciences). CD4-PE, CD8a-APC-Vio770, and CD34-FITC (GE). CD19-APC, CD11b-PE-Cyanine7, and CD117-efflor 450 (purchased from eBioscience). After staining, the samples were suspended using 500µL PBS and analyzed by BD Aria III flow cytometer.

Compound | inhibition at 1 µM (Hela cells) [%] | inhibition at 1 µM (A549 cells) [%] | inhibition at 1 µM (HCT-116 cells) [%] | inhibition at 1 µM (MCF7 cells) [%] | inhibition at 1 µM (293 cells) [%] | inhibition at 1 µM (Huh7 cells) [%] | inhibition at 1 µM (MKN45 cells) [%] | inhibition at 1 µM (HepG2 cells) [%] | effect on immune cells in blood (B and T cells)
COc1cccc2c1C(=O)c1c(O)c3c(c(O)c1C2=O)C[C@@](O)(C(=O)CO)C[C@@H]3O[C@H]1C[C@H](N)[C@H](O)[C@H](C)O1 [Adriamyci n Hydrochloride, doxorubicin hydrochloride] | 48.8 | 85.8 | 71.9 | 88 | 57.9 | 76.9 | 39.4 | 92.1 | –
Nc1ccn([C@@H]2CS[C@H](CO)O2)c(=O)n1 [lamivudine] | – | – | – | – | – | – | – | – | had some inhibitory effects on immune cells
